Assay results from US11559498B2, “Compositions and methods for in vivo lung and blood SNO repletion” (UNIVERSITY HOSPITALS CLEVELAND MEDICAL CENTER, priority 2020, dated 2023).

Key:
[1] = cited from earlier work
[2] = system: airway hyper-responsiveness; assay: Mouse airway hyper-responsiveness following hyperoxia; type: in vivo; settings: hyperoxia 60% oxygen for 21 days, FIG. 6
lung injury = assay: Rat ischemia/reperfusion (IR) preparation, lung injury; type: in vivo
[3] = system: porcine circovirus type 2 (PCV2); assay: PCV2 infection and replication; type: cell-based
GSNO levels in the lungs = GSNO levels in the lungs after inhalation of ENO; type: in vivo; settings: FIG. 1A
Excerpt: (§1) 1. Mice are either placed in chambers where ambient oxygen and ENO levels (1-100 ppm) are controlled, or mice are ventilated as in 2. below.
(§2) 2. Large animals (pigs/dogs) are ventilated. ENO was mixed into the ventilation circuit using a custom-made gas-blending device (1-100 ppm). One hundred ppm ENO was selected as the maximum dose based on the amounts of metHb (<5%).
(§3) 3. Humans Each subject was fitted with an on-demand nonrebreather mask to regulate oxygen (FiO2) and ENO delivery. ENO was blended at 1-100 ppm.

SNO-Hb = SNO-Hb levels in the blood of humans after inhalation of ENO; type: in vivo; settings: FIG. 1B
Excerpt: as §3
(§4) Photolysis-chemiluminescence was used to quantify RBC SNO-Hb levels before and during ENO exposure. Blood was obtained through arterial lines and venipuncture. Method of sample preparation and measurement is as described in Hausladen (ref: Hausladen A et al. Assessment of nitric oxide signals by triiodide chemiluminescence. Proc. Natl. Acad. Sci. U.S.A 104, 2157-2162 (2007)).

SNO-Hb and muscle StO2 = assay: Hypoxic humans dosed with ENO: muscle oxygenation and SNO-Hb; type: in vivo; settings: at study completion, FiO2 fixed at 0.12, FIG. 2
Excerpt: as §3, §4

lung inflammation (BALF) = assay: Hyperoxic injury-induced lung inflammation in mice; type: in vivo
Method: as §1
Bronchoalveolar lavage fluid (BAL), cell and protein content, differential cell analysis, lung fixation and histological sectioning, were performed as previously described (Groves, Am. J. Respir Cell Mol. Biol. 47, 776-783 (2012); Lien Van Hoecke J Vis Exp. 2017; (123): 55398)).

isolated human kidneys = assay: Isolated human kidneys treated with ENO
[4] = metHb during ventilation with ENO; type: in vivo, pigs/dogs; settings: 100 ppm ENO (maximum dose), ventilated large animals
Excerpt: as §2

## CC(=O)N[C@@H](CS)C(=O)O [N-acetylcysteine]
[1]; chloroform and ether
  solubility in chloroform and ether: practically insoluble
[1]; water and alcohol
  solubility in water and alcohol: soluble

## Cc1cc(C(N)=O)ccc1-n1c(CCC(=O)O)ccc1-c1ccc(-n2ccnc2)cc1 [N6022]
[2]; ip administration
  airway hyper-responsiveness: attenuated

## N[C@@H](CCC(=O)N[C@@H](CSN=O)C(=O)NCC(=O)O)C(=O)O [GSNO]
Lung injury; FIG. 5A
  lung injury: significantly reduced
Lung injury; FIG. 5B
  expression of iNOS: significantly reduced
Lung injury; FIG. 5C
  expression of NF-kappaB: significantly reduced
[2]; inhalation
  airway hyper-responsiveness: attenuated
[3]; FIG. 7A
  infection of PCV2: significantly reduces
[3]; FIG. 7B
  replication of PCV2: significantly reduces

## CCON=O [ENO, ethyl nitrite]
GSNO levels in the lungs; inhalation of ENO compared with inhaled NO
  GSNO levels in the lungs over inhaled NO: several fold
GSNO levels in the lungs; inhalation of ENO
  GSNO levels in the lungs: significantly increases
SNO-Hb
  SNO-Hb levels in the blood: significantly increases
SNO-Hb and muscle StO2
  SNO-Hb levels: doubled
  muscle StO2 (near infrared spectroscopy): at normoxic (prehypoxic) levels
Lung inflammation (BALF); ENO for 8 days, FIG. 3A
  lung (BALF) leukocyte concentrations: decreased
  lung (BALF) neutrophil concentrations: decreased
Lung inflammation (BALF); FIG. 3B
  accumulation of cytokine-induced neutrophil chemoattractant-1: attenuated
Lung inflammation (BALF); FIG. 3C
  expression of cytokine-induced neutrophil chemoattractant-1: attenuated
Isolated human kidneys; FIG. 4A
  tissue SNO levels: increased
Isolated human kidneys; FIG. 4B
  release of IL-10: increased
Isolated human kidneys; FIG. 4C
  level of IL-10: increased
[4]
  amounts of metHb: < 5%
